Assay results published in PubChem BioAssay AID2060909 (Molecular Pharmacology Branch, DTP, NCI, 2025).
“And” between values parts separate entries of the source, which are not always exact repeats. Identical values can stand only once.

Tested on: 362531-283-R-J2-PDC complex spheroid viability
Experiment: Anticancer human tumor 362531-283-R-J2-PDC patient-derived colon adenocarcinoma cell line growth inhibition [RAS]
Conditions: for viability, T/C: stronger effect = lower value
How it was run: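 Agents were tested in combination matrices in half-log decrements from a top concentration at or near clinical Cmax (10 microM if undetermined). Targets were multi-cell spheroids of tumour lines plus HUVEC and MSC stromal cells.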

[1] = curve of first compound, second compound 0.000949 µM
[2] = curve of first compound, second compound 0.003 µM
[3] = curve of first compound, second compound 0.00949 µM
[4] = curve of first compound, second compound 0.03 µM
[5] = curve of first compound, second compound 0.0949 µM
[6] = curve of first compound, second compound 0.3 µM
[7] = second compound 0.000949 µM, first compound 0.0316 µM
[8] = second compound 0.000949 µM, first compound 0.1 µM
[9] = second compound 0.000949 µM, first compound 0.316 µM
[10] = second compound 0.000949 µM, first compound 1 µM
[11] = second compound 0.003 µM, first compound 0.0316 µM
[12] = second compound 0.003 µM, first compound 0.1 µM
[13] = second compound 0.003 µM, first compound 0.316 µM
[14] = second compound 0.003 µM, first compound 1 µM
[15] = second compound 0.00949 µM, first compound 0.0316 µM
[16] = second compound 0.00949 µM, first compound 0.1 µM
[17] = second compound 0.00949 µM, first compound 0.316 µM
[18] = second compound 0.00949 µM, first compound 1 µM
[19] = second compound 0.03 µM, first compound 0.0316 µM
[20] = second compound 0.03 µM, first compound 0.1 µM
[21] = second compound 0.03 µM, first compound 0.316 µM
[22] = second compound 0.03 µM, first compound 1 µM
[23] = second compound 0.0949 µM, first compound 0.0316 µM
[24] = second compound 0.0949 µM, first compound 0.1 µM
[25] = second compound 0.0949 µM, first compound 0.316 µM
[26] = second compound 0.0949 µM, first compound 1 µM
[27] = second compound 0.3 µM, first compound 0.0316 µM
[28] = second compound 0.3 µM, first compound 0.1 µM
[29] = second compound 0.3 µM, first compound 0.316 µM
[30] = second compound 0.3 µM, first compound 1 µM
[31] = second compound 0.000949 µM, first compound 0.00316 µM
[32] = second compound 0.000949 µM, first compound 0.01 µM
[33] = second compound 0.003 µM, first compound 0.00316 µM
[34] = second compound 0.003 µM, first compound 0.01 µM
[35] = second compound 0.00949 µM, first compound 0.00316 µM
[36] = second compound 0.00949 µM, first compound 0.01 µM
[37] = second compound 0.03 µM, first compound 0.00316 µM
[38] = second compound 0.03 µM, first compound 0.01 µM
[39] = second compound 0.0949 µM, first compound 0.00316 µM
[40] = second compound 0.0949 µM, first compound 0.01 µM
[41] = second compound 0.3 µM, first compound 0.00316 µM
[42] = second compound 0.3 µM, first compound 0.01 µM
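Note: spheroids exposed to the agents for 7 days before readout.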
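Throughout, for viability, T/C: luminescence viability as percent of DMSO vehicle control wells.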

Work on `CC(C)NCC(C(=O)N1CCN(c2ncnc3c2C(C)CC3O)CC1)c1ccc(Cl)cc1` (configuration not stated) + CCn1c(-c2cc(N3CCN(C)CC3)cnc2C(C)OC)c2c3cc(ccc31)-c1csc(n1)CC(NC(=O)C1CC1C)C(=O)N1CCCC(N1)C(=O)OCC(C)(C)C2 yielded an IC50 [1] greater than 10000 nM, an IC50 [2] greater than 10000 nM and an IC50 [3] greater than 10000 nM. The IC50 [4] was greater than 10000 nM, the IC50 [5] was greater than 10000 nM and the IC50 [6] was less than 31.6 nM. The viability, T/C [7] was 103%, the viability, T/C [8] was 103% and the viability, T/C [9] was 101%. The viability, T/C [10] was 99.5%, the viability, T/C (second compound 0.000949 µM, first compound 3.16 µM) was 92.7% and the viability, T/C (second compound 0.000949 µM, first compound 10 µM) was 89.7%. The viability, T/C [11] was 95.6%, the viability, T/C [12] was 109% and the viability, T/C [13] was 97.8%. It also gave a viability, T/C [14] of 98.7%, a viability, T/C (second compound 0.003 µM, first compound 3.16 µM) of 106% and a viability, T/C (second compound 0.003 µM, first compound 10 µM) of 100%. The viability, T/C [15] was 103%, the viability, T/C [16] was 110% and the viability, T/C [17] was 89.7%. The viability, T/C [18] was 99%, the viability, T/C (second compound 0.00949 µM, first compound 3.16 µM) was 93.6% and the viability, T/C (second compound 0.00949 µM, first compound 10 µM) was 93.2%. It also gave a viability, T/C [19] of 99.4%, a viability, T/C [20] of 83.8% and a viability, T/C [21] of 84.1%. The viability, T/C [22] was 87.8%, the viability, T/C (second compound 0.03 µM, first compound 3.16 µM) was 92.6% and the viability, T/C (second compound 0.03 µM, first compound 10 µM) was 85.7%. It also gave a viability, T/C [23] of 81.8%, a viability, T/C [24] of 101% and a viability, T/C [25] of 86.1%. For the same compound, the viability, T/C [26] was 72.3%, the viability, T/C (second compound 0.0949 µM, first compound 3.16 µM) was 76.4% and the viability, T/C (second compound 0.0949 µM, first compound 10 µM) was 65.4%. It also gave a viability, T/C [27] of 46.8%, a viability, T/C [28] of 53.9% and a viability, T/C [29] of 42.6%. It also gave a viability, T/C [30] of 41.6%, a viability, T/C (second compound 0.3 µM, first compound 3.16 µM) of 31% and a viability, T/C (second compound 0.3 µM, first compound 10 µM) of 33.5%.

In the case of `CCN1CCN(Cc2ccc(Nc3ncc(F)c(-c4cc(F)c5nc(C)n(C(C)C)c5c4)n3)nc2)CC1` + CCn1c(-c2cc(N3CCN(C)CC3)cnc2C(C)OC)c2c3cc(ccc31)-c1csc(n1)CC(NC(=O)C1CC1C)C(=O)N1CCCC(N1)C(=O)OCC(C)(C)C2, the IC50 [1] is reported as 830 nM, the IC50 [2] is reported as 714 nM and the IC50 [3] is reported as 471 nM. The IC50 [4] was 308 nM, the IC50 [5] was 112 nM and the IC50 [6] was less than 3.16 nM. The viability, T/C [31] was 95.6%, the viability, T/C [32] was 114% and the viability, T/C [7] was 99.2%. It also gave a viability, T/C [8] of 90.4%, a viability, T/C [9] of 69.9% and a viability, T/C [10] of 46.1%. The viability, T/C [33] was 106%, the viability, T/C [34] was 110% and the viability, T/C [11] was 96.4%. For the same compound, the viability, T/C [12] was 87.8%, the viability, T/C [13] was 66.6% and the viability, T/C [14] was 43.1%. The viability, T/C [35] was 102%, the viability, T/C [36] was 112% and the viability, T/C [15] was 105%. It also gave a viability, T/C [16] of 100%, a viability, T/C [17] of 61.4% and a viability, T/C [18] of 28.4%. It also gave a viability, T/C [37] of 102%, a viability, T/C [38] of 96.8% and a viability, T/C [19] of 93.2%. For the same compound, the viability, T/C [20] was 73.5%, the viability, T/C [21] was 50.1% and the viability, T/C [22] was 15.2%. It also gave a viability, T/C [39] of 86.9%, a viability, T/C [40] of 81% and a viability, T/C [23] of 81.7%. For the same compound, the viability, T/C [24] was 54.2%, the viability, T/C [25] was 10.9% and the viability, T/C [26] was 13.2%. It also gave a viability, T/C [41] of 48.4%, a viability, T/C [42] of 46.8% and a viability, T/C [27] of 40%. It also gave a viability, T/C [28] of 13.3%, a viability, T/C [29] of 6.94% and a viability, T/C [30] of 11.1%.

`C[C@@H](NC(=O)c1ncnc(N)c1Cl)c1ncc(C(=O)Nc2cc(C(F)(F)F)c(Cl)cn2)s1` was tested, and the viability, T/C (compound 0.0316 µM) was 97.4% [middle of 4 runs], the viability, T/C (compound 0.1 µM) was 102% [middle of 4 runs] and the viability, T/C (compound 1 µM) was 95.7% [middle of 4 runs]. For the same compound, the viability, T/C (compound 3.16 µM) was 93.9% [middle of 4 runs], the viability, T/C (compound 10 µM) was 75.5% [middle of 4 runs] and the IC50 (curve of compound) was greater than 10000 nM.

In the case of `CC(C)n1nc(-c2ccc3oc(N)nc3c2)c2c(N)ncnc21`, the viability, T/C (compound 0.000316 µM) is reported as 103% [middle of 4 runs], the viability, T/C (compound 0.001 µM) is reported as 99.1% [middle of 4 runs] and the viability, T/C (compound 0.00316 µM) is reported as 101% [middle of 4 runs]. For the same compound, the viability, T/C (compound 0.0316 µM) was 63.5% [middle of 4 runs] and the IC50 (curve of compound) was 53.9 nM and > 100 nM and 75.8 nM.

With `CCN1CCN(Cc2ccc(Nc3ncc(F)c(-c4cc(F)c5nc(C)n(C(C)C)c5c4)n3)nc2)CC1` + CCn1c(-c2cccnc2C(C)OC)c2c3cc(ccc31)N1CCOC(CC(NC(=O)C(C(C)C)N(C)C(=O)C3(F)CCN(C(=O)C#CC(C)(C)N(C)C)CC3)C(=O)N3CCCC(N3)C(=O)OCC(C)(C)C2)C1 the IC50 [1] was greater than 1000 nM, the IC50 [2] was 719 nM and the IC50 [3] was 876 nM. The IC50 [4] was greater than 1000 nM, the IC50 [5] was greater than 1000 nM and the IC50 [6] was 437 nM. For the same compound, the viability, T/C [31] was 96%, the viability, T/C [32] was 92% and the viability, T/C [7] was 67.3%. It also gave a viability, T/C [8] of 83.8%, a viability, T/C [9] of 66.4% and a viability, T/C [10] of 46.7%. For the same compound, the viability, T/C [33] was 108%, the viability, T/C [34] was 98.5% and the viability, T/C [11] was 65.6%. The viability, T/C [12] was 73%, the viability, T/C [13] was 66.6% and the viability, T/C [14] was 40.9%. For the same compound, the viability, T/C [35] was 105%, the viability, T/C [36] was 105% and the viability, T/C [15] was 55.3%. The viability, T/C [16] was 74.4%, the viability, T/C [17] was 59.8% and the viability, T/C [18] was 45.7%. The viability, T/C [37] was 112%, the viability, T/C [38] was 94.2% and the viability, T/C [19] was 57.5%. The viability, T/C [20] was 65.8%, the viability, T/C [21] was 66.1% and the viability, T/C [22] was 43.4%. For the same compound, the viability, T/C [39] was 103%, the viability, T/C [40] was 88.3% and the viability, T/C [23] was 53.4%. It also gave a viability, T/C [24] of 69%, a viability, T/C [25] of 65% and a viability, T/C [26] of 46.6%. It also gave a viability, T/C [41] of 100%, a viability, T/C [42] of 82.5% and a viability, T/C [27] of 56.4%. It also gave a viability, T/C [28] of 64.9%, a viability, T/C [29] of 57.2% and a viability, T/C [30] of 40.9%.
